Like-named read-outs stand apart in the source and are kept apart here.
Target: T1, human kappa opioid receptors (Homo sapiens, UniProt P41145)
T1 construct: expressed in transfected cells; host or cells: U2OS
Test: [35S]GTPγS binding, membranes from U2OS cells
Format: biochemical
Conditions: for Emax: read-out: GTPγS (% efficacy)

T1 sequence (P41145 whole entry): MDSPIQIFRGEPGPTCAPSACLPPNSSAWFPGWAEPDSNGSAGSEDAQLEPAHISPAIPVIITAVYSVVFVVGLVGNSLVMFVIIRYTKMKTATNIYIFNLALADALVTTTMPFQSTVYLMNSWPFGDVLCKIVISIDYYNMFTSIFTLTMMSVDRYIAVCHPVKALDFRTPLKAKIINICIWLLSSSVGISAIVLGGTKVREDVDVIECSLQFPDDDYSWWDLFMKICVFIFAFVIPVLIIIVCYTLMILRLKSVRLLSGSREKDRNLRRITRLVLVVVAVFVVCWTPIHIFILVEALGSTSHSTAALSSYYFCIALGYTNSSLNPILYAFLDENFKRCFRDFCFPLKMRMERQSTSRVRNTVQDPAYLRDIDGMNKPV

SMILES | EC50 (GTPγS EC50 (nM), Table D) | Emax | EC50
O=C(Cc1ccc(Cl)c(Cl)c1)N1CCN(Cc2ncccn2)[C@@H]2COC[C@H](N3CCCC3)[C@H]21 (racemic) [rac-5A69] | 94 nM | 114% | –
O=C(Cc1ccc(Cl)c(Cl)c1)N1CCN(CCCO)[C@@H]2COC[C@H](N3CCCC3)[C@H]21 (racemic) [rac-5A75] | 39 nM | 89% | –
Cn1cc(CN2CCN(C(=O)Cc3ccc(Cl)c(Cl)c3)[C@H]3[C@H]2COC[C@@H]3N2CCCC2)cn1 (racemic) [rac-5A79] | – | 82% | 107 nM
O=C(Cc1ccc(Cl)c(Cl)c1)N1CCN(Cc2ccccn2)[C@@H]2COC[C@H](N3CCCC3)[C@H]21 (racemic) [rac-5A80] | 64 nM | 94% | –
O=C(Cc1ccc(Cl)c(Cl)c1)N1CCN(Cc2cccnc2)[C@@H]2COC[C@H](N3CCCC3)[C@H]21 (racemic) [rac-5A81] | 7.4 nM | 95% | –
O=C(Cc1ccc(Cl)c(Cl)c1)N1CCN(CC2CCOCC2)[C@@H]2COC[C@H](N3CCCC3)[C@H]21 (racemic) [rac-5A84] | – | 84% | 136 nM
O=C(Cc1ccc(Cl)c(Cl)c1)N1CCN(CC2CCS(=O)(=O)CC2)[C@@H]2COC[C@H](N3CCCC3)[C@H]21 (racemic) [rac-5A85] | – | 100% | 320 nM
N#CCN1CCN(C(=O)Cc2ccc(Cl)c(Cl)c2)[C@H]2[C@H]1COC[C@@H]2N1CCCC1 (racemic) [rac-5A87] | 20 nM | 115% | –
O=C(O)CN1CCN(C(=O)Cc2ccc(Cl)c(Cl)c2)[C@H]2[C@H]1COC[C@@H]2N1CCCC1 (racemic) [rac-5A88] | – | 83% | 2490 nM
CS(=O)(=O)CCN1CCN(C(=O)Cc2ccc(Cl)c(Cl)c2)[C@H]2[C@H]1COC[C@@H]2N1CCCC1 (racemic) [rac-5A94] | 27 nM | 109% | –
O=C(Cc1ccc(Cl)c(Cl)c1)N1CCN(C(=O)c2ccon2)[C@@H]2COC[C@H](N3CCCC3)[C@H]21 (racemic) [rac-5A97] | 0.8 nM | 88% | –
O=C(Cc1ccc(Cl)c(Cl)c1)N1CCN(Cc2ncon2)[C@@H]2COC[C@H](N3CCCC3)[C@H]21 (racemic) [rac-5A100] | 1.9 nM | 86% | –
NC(=O)CN1CCN(C(=O)Cc2ccc(Cl)c(Cl)c2)[C@H]2[C@H]1COC[C@@H]2N1CCCC1 (racemic) [rac-5A102] | 37 nM | 96% | –
Cn1nccc1CN1CCN(C(=O)Cc2ccc(Cl)c(Cl)c2)[C@H]2[C@H]1COC[C@@H]2N1CCCC1 (racemic) [rac-5A104] | 9 nM | 74% | –
Cc1noc(CN2CCN(C(=O)Cc3ccc(Cl)c(Cl)c3)[C@H]3[C@H]2COC[C@@H]3N2CCCC2)n1 (racemic) [rac-5A105] | 19 nM | 82% | –
O=C(Cc1ccc(Cl)c(Cl)c1)N1CCN(Cc2cn[nH]c2)[C@@H]2COC[C@H](N3CCCC3)[C@H]21 (racemic) [rac-5A107] | 3.9 nM | 112% | –
O=C(Cc1ccc(Cl)c(Cl)c1)N1CCN(Cc2ccn[nH]2)[C@@H]2COC[C@H](N3CCCC3)[C@H]21 (racemic) [rac-5A108] | 26 nM | 98% | –
O=C(Cc1ccc(Cl)c(Cl)c1)N1CCN(Cc2ncco2)[C@@H]2COC[C@H](N3CCCC3)[C@H]21 (racemic) [rac-5A111] | 9.8 nM | 146% | –

SMILES | EC50 (GTPγS EC50 (nM), Table D) | Emax | EC50
CCNC(=O)CN1CCN(C(=O)Cc2ccc(Cl)c(Cl)c2)[C@H]2[C@H]1COC[C@@H]2N1CCCC1 (racemic) [rac-5A112] | 85 nM | 75% | –
O=C(CN1CCN(C(=O)Cc2ccc(Cl)c(Cl)c2)[C@H]2[C@H]1COC[C@@H]2N1CCCC1)N1CCCC1 (racemic) [rac-5A113] | 70 nM | 92% | –
Cc1nnc(CN2CCN(C(=O)Cc3ccc(Cl)c(Cl)c3)[C@H]3[C@H]2COC[C@@H]3N2CCCC2)o1 (racemic) [rac-5A118] | 40 nM | 91% | –
O=C(Cc1ccc(Cl)c(Cl)c1)N1CCN(C(=O)c2ccno2)[C@@H]2COC[C@H](N3CCCC3)[C@H]21 (racemic) [rac-5A121] | 17 nM | 86% | –
O=C(Cc1ccc(Cl)c(Cl)c1)N1CCN(C(=O)c2cc[nH]n2)[C@@H]2COC[C@H](N3CCCC3)[C@H]21 (racemic) [rac-5A122] | 31 nM | 79% | –
O=C(Cc1ccc(Cl)c(Cl)c1)N1CCN(C(=O)c2cn[nH]c2)[C@@H]2COC[C@H](N3CCCC3)[C@H]21 (racemic) [rac-5A123] | 39 nM | 62% | –
CN(C)S(=O)(=O)N1CCN(C(=O)Cc2ccc(Cl)c(Cl)c2)[C@H]2[C@H]1COC[C@@H]2N1CCCC1 (single isomer, unassigned) [Example 5A56A] | 11 nM | 77% | –
CN(C)S(=O)(=O)N1CCN(C(=O)Cc2ccc(Cl)c(Cl)c2)[C@H]2[C@H](N3CCCC3)COC[C@@H]21 (single isomer, unassigned) [Example 5A56B] | 123 nM | 122% | –
O=C(Cc1ccc(Cl)c(Cl)c1)N1CCN(CCO)[C@@H]2COC[C@H](N3CCCC3)[C@H]21 (single isomer, unassigned) [Example 5A74A] | 21 nM | 95% | –
O=C(Cc1ccc(Cl)c(Cl)c1)N1CCN(CCO)[C@H]2COC[C@@H](N3CCCC3)[C@@H]21 (single isomer, unassigned) [Example 5A74B] | 12 nM | 95% | –
O=C(Cc1ccc(Cl)c(Cl)c1)N1CCN(CC2COC2)[C@@H]2COC[C@H](N3CCCC3)[C@H]21 (single isomer, unassigned) [Example 5A83A] | 199 nM | 141% | –
O=C(Cc1ccc(Cl)c(Cl)c1)N1CCN(CC2COC2)[C@H]2COC[C@@H](N3CCCC3)[C@@H]21 (single isomer, unassigned) [Example 5A83B] | 24 nM | 113% | –
O=C(Cc1ccc(Cl)c(Cl)c1)N1CCN(C(=O)CO)[C@@H]2COC[C@H](N3CCCC3)[C@H]21 (single isomer, unassigned) [Example 5A95A] | 21 nM | 87% | –
O=C(Cc1ccc(Cl)c(Cl)c1)N1CCN(C(=O)CO)[C@H]2COC[C@@H](N3CCCC3)[C@@H]21 (single isomer, unassigned) [Example 5A95B] | 202 nM | 78% | –
O=C(Cc1ccc(Cl)c(Cl)c1)N1CCN(C(=O)C2(O)CCCC2)[C@@H]2COC[C@H](N3CCCC3)[C@H]21 (single isomer, unassigned) [Example 5A125A] | 58 nM | 95% | –
O=C(Cc1ccc(Cl)c(Cl)c1)N1CCN(C(=O)C2(O)CCCC2)[C@H]2COC[C@@H](N3CCCC3)[C@@H]21 (single isomer, unassigned) [Example 5A125B] | 35 nM | 81% | –
O=C(Cc1ccc(Cl)c(Cl)c1)N1CCN(C(=O)C2(O)CC2)[C@@H]2COC[C@H](N3CCCC3)[C@H]21 (single isomer, unassigned) [Example 5A126A] | 16 nM | 98% | –
